The values below come from patent US20260001853A1, “ASCORBIC ACID DERIVATIVE OR SALT THEREOF, AND COSMETIC THEREOF” (SEIWA KASEI COMPANY, LIMITED, priority 2022, published 2026).

In data set [1] the test system is B16 melanoma 4A5 cells. As to the kind of experiment: Melanin production inhibitory effect (theophylline-induced melanin production). Type of data set: cell-based, mouse. As to conditions: melanin production inhibition rate, sample at a concentration of 10 mM or less, 3 days culture, theophylline 1 mmol/L, N=4. The procedure:
As a test of the whitening effect, the effect on theophylline-induced melanin production in B16 melanoma 4A5 cells was evaluated for the ascorbic acid derivatives of the present invention according to the following procedure. A similar evaluation was also performed for a known ascorbic acid derivative for comparison. The results are shown in Tables 9 to 11. • (1) B16 mouse melanoma 4A5 cells were seeded in a 48-well plate at a cell density of 8.0×10^3 cells/well. • (2) After culturing for 24 hours in Dulbecco's modified Eagle's medium (manufactured by SIGMA, hereinafter abbreviated as “D-MEM”) containing 10% fetal bovine serum, the medium was replaced with D-MEM containing 10% fetal bovine serum containing theophylline (final concentration 1 mmol/L) and a specified concentration of a sample. • (3) After culturing for 3 days in the presence of the sample, the medium was removed using an aspirator, distilled water was added, and the cells were disrupted by ultrasonication. • (4) The amount of protein was then quantified using a BCA protein assay kit (manufactured by PIERCE), and the amount of melanin produced was measured by an alkali solubilization method. Sodium hydroxide was added to the cell lysate to a final concentration of 1 mol/L, and the solution was dissolved by heating (60° C., 30 minutes), thereafter the absorbance at 405 nm was measured using a microplate reader. The amount of melanin was calculated from a calibration curve prepared using synthetic melanin (SIGMA) as a standard. The amount of melanin per unit protein was calculated by dividing the amount of melanin by the amount of protein. • (5) The melanin production inhibition rate was calculated using the following formula.
[In the formula, A represents the amount of melanin per unit protein (g/g) when the sample was added, B represents the amount of melanin per unit protein (g/g) in the normal group, and C represents the amount of melanin per unit protein (g/g) in the control group.]
The melanin production inhibition rate when the sample was measured at a concentration of 10 mM or less is expressed as follows. The measurement was performed with N=4. • <20%: ± • 20-40%: + • 40-60%: ++ • 60-100%: +++

Data set [2] relates to Normal human dermal fibroblasts (NHDF). As to the kind of experiment: Hyaluronic acid production promoting effect (ELISA of supernatant). It is filed as cell-based. As to conditions: amount of hyaluronic acid produced, % with control group taken as 100%; sample at 10 mmol/L or less, 48 hours, N=3. The procedure:
Normal human dermal fibroblasts (NHDF) were prepared in D-MEM containing 5% (v/v) fetal bovine serum to a cell density of 2.5× 10^4 cells/well, and then pre-incubated on a 96-well plate for 24 hours. After removing the medium, samples prepared in serum-free D-MEM were added to each well and cultured for 48 hours. After the culture was completed, the amount of hyaluronic acid in the supernatant was quantified by ELISA method. The measurement was performed with N=3.
The amount of hyaluronic acid produced when the samples were measured at a concentration of 10 mmol/L or less was compared with that of the control group, and the results (% values when the control group is taken as 100%) are shown in Tables 18 to 20 based on the following criteria. • <100%: ± • 100-120%: + • 120-150%: ++ • 150%: +++

The subject of data set [3] is Normal human dermal fibroblasts. As to the kind of experiment: Collagen production promoting effect (ELISA of supernatant). It is filed as cell-based. As to conditions: amount of collagen produced, % with control group taken as 100%; sample at 10 mmol/L or less, 48 hours, N=3. The procedure:
Normal human dermal fibroblasts were prepared in D-MEM containing 5% (v/v) fetal bovine serum to a cell density of […] cells/well, and pre incubated on a 96-well plate for 24 hours. After removing the medium, samples prepared to a predetermined concentration in D-MEM containing 5% (v/v) fetal bovine serum were added to each well and cultured for 48 hours. After completion of the culture, the amount of free collagen in the supernatant was quantified by ELISA method. The measurement was performed with N=3.
The amount of collagen produced when the samples were measured at a concentration of 10 mmol/L or less was compared with that of the control group, and the results (% values when the control group is taken as 100%) are shown in Tables 15 to 17 based on the following criteria. • <100%: ± • 100-120%: + • 120%: ++

Data set [4] is described as follows: Stability test (residual rate by HPLC, odor, coloring). As to conditions: 1% aqueous solution; for Coloring / Odor: total score of 10 panelists. It is filed as physicochemical. The procedure:
With a dilute potassium hydroxide aqueous solution, 1% aqueous solution of each test sample was adjusted to pH 6, placed in a 50 mL screw tube, sealed, […], and then subjected to HPLC measurement (using a liquid chromatograph manufactured by Shimadzu Corporation) to determine the residual rate from the peak area. The residual rate, odor, and coloring degree were evaluated according to the following methods and criteria.
Residual rate: • ⊚: 90% or more • ◯: 80% or more, less than 90% • Δ: 60% or more, less than 80% • x: 20% or more, less than 60% • xx: Less than 20%
Evaluation was made by 10 panelists according to the following criteria. • 3: Almost odorless • 2: There is a slight strange odor. • 1: A strong odor is detected.
Based on the evaluation results, the following classification was made: • ⊚: Total score of 10 panelists is 25 or more • ◯: Total score of 10 panelists is 20-24 • Δ: Total score of 10 panelists is 16-19 • x: The total score of 10 panelists is 15 or less
Evaluation was made by 10 panelists according to the following criteria. • 3: Almost no change compared to immediately after preparation. • 2: Color changes compared to immediately after preparation. • 1: Strongly colored compared to immediately after preparation.
Based on the evaluation results, the following classification was made: • ◯: Total score of 10 panelists is 25 or more • Δ: Total score of 10 panelists is 16-24 • x: The total score of 10 panelists is 15 or less

Where [5] appears, read: pH 6, stored at 50° C., four weeks later.
Setting [6] is: pH 6, stored at 50° C., two weeks later.

Regarding `CC(C)(O)COC1=C(OCC(C)(C)O)[C@@H]([C@@H](O)CO)OC1=O` [Synthesis Example 17, 2,3-di-O-(2-hydroxyisobutyl) ascorbic acid], the “Melanin production inhibition effect” value in data set [1] is on record as “+ (20-40%: +)”. Also, the “Hyaluronic acid production promoting effect” value in data set [2] is listed as “++ (120-150%: ++)”. Moreover, the “Collagen production promoting effect” value in data set [3] is recorded as “++ (120%: ++)”. In addition, in data set [4] (pH 6, 50° C., initial), the Residual rate entry is “⊚ (⊚: 90% or more)”, the Coloring entry was “◯ (◯: Total score of 10 panelists is 25 or more)” and the Odor entry is “◯ (◯: Total score of 10 panelists is 20-24)”. In data set [4] (setting [5]), the Residual rate result was “⊚ (⊚: 90% or more)”, the Coloring entry is reported as “◯ (◯: Total score of 10 panelists is 25 or more)” and the Odor entry is reported as “◯ (◯: Total score of 10 panelists is 20-24)”. Moreover, in data set [4] (setting [6]), the Residual rate result is “⊚ (⊚: 90% or more)”, the Coloring entry is given as “◯ (◯: Total score of 10 panelists is 25 or more)” and the Odor result is on record as “◯ (◯: Total score of 10 panelists is 20-24)”.

For the compound `CCCCCCCCCCCCCCOC1=C(OCC(C)(C)O)[C@@H]([C@@H](O)CO)OC1=O` [Synthesis Example 24, 2-O-tetradecyl-3-O-(2-hydroxyisobutyl) ascorbic acid], the “Melanin production inhibition effect” value in data set [1] is on record as “+++ (60-100%: +++)”. Further, the “Hyaluronic acid production promoting effect” value in data set [2] is reported as “++ (120-150%: ++)”. The “Collagen production promoting effect” value in data set [3] is recorded as “++ (120%: ++)”. Moreover, the Residual rate result in data set [4] (pH 6, 50° C., initial) is given as “⊚ (⊚: 90% or more)”; in data set [4] (setting [5]) it was “⊚ (⊚: 90% or more)”; in data set [4] (setting [6]) it was “⊚ (⊚: 90% or more)”. For the same compound, the Coloring result in data set [4] (pH 6, 50° C., initial) is on record as “◯ (◯: Total score of 10 panelists is 25 or more)”; in data set [4] (setting [5]), “◯ (◯: Total score of 10 panelists is 25 or more)”; in data set [4] (setting [6]), “◯ (◯: Total score of 10 panelists is 25 or more)”. Besides, the Odor result in data set [4] (pH 6, 50° C., initial) was “◯ (◯: Total score of 10 panelists is 20-24)”; in data set [4] (setting [5]), “◯ (◯: Total score of 10 panelists is 20-24)”; in data set [4] (setting [6]), “◯ (◯: Total score of 10 panelists is 20-24)”.

As for `CCCCCCCCCCCCOCC(O)COC1=C(OCC(C)(C)O)C(C(O)CO)OC1=O` (stereo not drawn) [Synthesis Example 31, 2-O-(2-hydroxy-3-O-dodecyl)-3-O-(2-hydroxyisobutyl) ascorbic acid], the “Melanin production inhibition effect” value in data set [1] was “+ (20-40%: +)”. In addition, the “Hyaluronic acid production promoting effect” value in data set [2] is recorded as “++ (120-150%: ++)”. Further, in data set [3], the “Collagen production promoting effect” value is “++ (120%: ++)”. Moreover, in data set [4] (pH 6, 50° C., initial), the Residual rate result was “⊚ (⊚: 90% or more)”, the Coloring entry is “◯ (◯: Total score of 10 panelists is 25 or more)” and the Odor result was “⊚ (⊚: Total score of 10 panelists is 25 or more)”. Besides, in data set [4] (setting [5]), the Residual rate entry is “⊚ (⊚: 90% or more)”, the Coloring entry is on record as “◯ (◯: Total score of 10 panelists is 25 or more)” and the Odor result is “◯ (◯: Total score of 10 panelists is 20-24)”. In data set [4] (setting [6]), the Residual rate entry is listed as “⊚ (⊚: 90% or more)”, the Coloring result was “◯ (◯: Total score of 10 panelists is 25 or more)” and the Odor result is given as “⊚ (⊚: Total score of 10 panelists is 25 or more)”.

For `CCCCCCCCC(O)COC1=C(OCC(C)(C)O)C(=O)O[C@@H]1[C@@H](O)CO` (stereo partly drawn) [Synthesis Example 36, 2-O-(2-hydroxyisobutyl)-3-O-(2-hydroxydecyl) ascorbic acid], the “Melanin production inhibition effect” value in data set [1] is given as “++ (40-60%: ++)”. In data set [2], the “Hyaluronic acid production promoting effect” value is given as “++ (120-150%: ++)”. In data set [3], the “Collagen production promoting effect” value is listed as “+ (100-120%: +)”. Further, in data set [4] (pH 6, 50° C., initial), the Residual rate entry was “⊚ (⊚: 90% or more)”, the Coloring result was “⊚” and the Odor entry is recorded as “◯ (◯: Total score of 10 panelists is 20-24)”. Besides, in data set [4] (setting [5]), the Residual rate result is given as “⊚ (⊚: 90% or more)”, the Coloring entry is on record as “◯ (◯: Total score of 10 panelists is 25 or more)” and the Odor entry is on record as “◯ (◯: Total score of 10 panelists is 20-24)”. Besides, in data set [4] (setting [6]), the Residual rate result was “⊚ (⊚: 90% or more)”, the Coloring entry is recorded as “◯ (◯: Total score of 10 panelists is 25 or more)” and the Odor result is recorded as “◯ (◯: Total score of 10 panelists is 20-24)”.

Consider `CCCCCCCCCCCCCCC(O)COC1=C(OCC(C)(C)O)C(=O)O[C@@H]1[C@@H](O)CO` (stereo partly drawn) [Synthesis Example 37, 2-O-(2-hydroxyisobutyl)-3-O-(2-hydroxyhexadecyl) ascorbic acid], for which the “Melanin production inhibition effect” value in data set [1] was “+ (20-40%: +)”. The “Hyaluronic acid production promoting effect” value in data set [2] was “++ (120-150%: ++)”. Moreover, in data set [3], the “Collagen production promoting effect” value is given as “+ (100-120%: +)”. Further, the Residual rate result in data set [4] (pH 6, 50° C., initial) was “⊚ (⊚: 90% or more)”; in data set [4] (setting [5]), “⊚ (⊚: 90% or more)”; in data set [4] (setting [6]) it was “⊚ (⊚: 90% or more)”. The Coloring result in data set [4] (pH 6, 50° C., initial) is reported as “◯ (◯: Total score of 10 panelists is 25 or more)”; in data set [4] (setting [5]), “◯ (◯: Total score of 10 panelists is 25 or more)”; in data set [4] (setting [6]), “◯ (◯: Total score of 10 panelists is 25 or more)”. The Odor result is “⊚ (⊚: Total score of 10 panelists is 25 or more)” in data set [4] (pH 6, 50° C., initial); “◯ (◯: Total score of 10 panelists is 20-24)” in data set [4] (setting [5]); “◯ (◯: Total score of 10 panelists is 20-24)” in data set [4] (setting [6]).

As for `CC(C)(O)COC1=C(OCC(O)c2ccccc2)C(C(O)CO)OC1=O` (stereo not drawn) [Synthesis Example 38, 2-O-(2-hydroxyisobutyl)-3-O-(2-hydroxyethylbenzene) ascorbic acid], in data set [1], the “Melanin production inhibition effect” value is “++ (40-60%: ++)”. The “Hyaluronic acid production promoting effect” value in data set [2] is “++ (120-150%: ++)”. In data set [3], the “Collagen production promoting effect” value is recorded as “++ (120%: ++)”. In addition, in data set [4] (pH 6, 50° C., initial), the Residual rate result is “⊚ (⊚: 90% or more)”, the Coloring entry is given as “⊚” and the Odor result is recorded as “◯ (◯: Total score of 10 panelists is 20-24)”. For the same compound, in data set [4] (setting [5]), the Residual rate entry is “⊚ (⊚: 90% or more)”, the Coloring entry is “◯ (◯: Total score of 10 panelists is 25 or more)” and the Odor entry is on record as “◯ (◯: Total score of 10 panelists is 20-24)”. Also, in data set [4] (setting [6]), the Residual rate entry is “⊚ (⊚: 90% or more)”, the Coloring result is on record as “◯ (◯: Total score of 10 panelists is 25 or more)” and the Odor result is recorded as “◯ (◯: Total score of 10 panelists is 20-24)”.
